Measurements from patent publication US20060228301A1, “Methods and compositions for determining targeted drug sensitivity and resistance in a cancer subject” (priority 2005, published 2006).

Tests used:
K562r cells = settings: high doses; cited from earlier work
[1] = tested on: rat neuroblastoma (C6) cells; assay: ratio of [1-13C1]-D-ribose to [1,2-13C2]-D-ribose (m1/m2) in cultured cells contacted with [1,2-13C2]-D-glucose; assay type: cell-based; settings: untreated ratio 2.35
Source text: FIG. 6 depicts the results of in culture studies comparing the ratio of [1-^13C1]-D-ribose to [1,2-^13C2]-D-ribose in rat neuroblastoma (C6) cells which are sensitive to imatinib treatment. The increased ratio of m1/m2 ^13C in ribose indicates sensitivity to Gleevec, which is further increased by Hydroxyurea treatment, which is a well known chemotherapeutic agent for the treatment of various human cancers. The set of vertical bars on the left are observed values of m1 and the set of vertical bars on the right are observed values of m2. The calculated ratios of m1/m2 are provided above the horizontal lines.
(§1) When the ratio of [1-^13C1]-D-ribose to [1,2-^13C2]-D-ribose is less than 1 (e.g., 0.5) the patient is at risk of having a reduced response to treatment with a cancer therapeutic such as imatinib. The increased risk of developing a reduced response to imatinib includes any increased risk. In embodiments of the invention, the increased risk is about a 10% decrease in the ratio described above indicating the risk of developing imatinib resistance. In other embodiments, the increased risk is indicated by about a 10%, 15%, 20%, 25%, 50%, 75%, 85%, 90%, 95%, 98%, 99%, or 99.9% decrease in the ratio of [1-^13C1]-D-ribose to [1,2-^13C2]-D-ribose. […]

LAMA84r cells = settings: high doses; cited from earlier work
[2] = tested on: cultured myeloid (K-562) cells from patients with chronic myeloid leukemia; assay: ratio of [1-13C1]-D-ribose to [1,2-13C2]-D-ribose (m1/m2) in cultured CML myeloid cells exposed to Gleevec, ribose mass spectral analysis; assay type: cell-based, human; settings: myeloid cells from two patients resistant to Gleevec, increasing concentrations of Gleevec; cut off 0.65 for resistance
Source text: FIG. 5 depicts the results of studies comparing the ratio of [1-^13C1]-D-ribose to [1,2-^13C2]-D-ribose in cultured myeloid cells from patients with chronic myeloid leukemia using increasing concentrations of Gleevec (“x” axis). The set of vertical bars on the left are observed values of m1 and the set of vertical bars on the right are observed values of m2. The calculated ratios of m1/m2 are provided above the horizontal lines. In this experiment, a cut off point of 0.65 to detect resistance was used to identify Gleevec resistance. Cells from two patients resistant to Gleevec have m1/m2 ratios below 0.65, as indicated by an asterisk.
as §1

Row | Structure (SMILES) | response to Gleevec treatment (K562r cells) | ratio of [1-13C1]-D-ribose to [1,2-13C2]-D-ribose (m1/m2) ([1]; 3.0 μM Gleevec) | response to Gleevec treatment (LAMA84r cells) | m1/m2 ratio [2] | ratio of [1-13C1]-D-ribose to [1,2-13C2]-D-ribose (m1/m2) ([1]; 100 μM hydroxyurea)
1 | Cc1ccc(NC(=O)c2ccc(CN3CCN(C)CC3)cc2)cc1Nc1nccc(-c2cccnc2)n1 [Gleevec, imatinib] | do not respond well even to high doses | 2.97 | do not respond well even to high doses | below 0.65 | –
2 | NC(=O)NO [hydroxyurea] | – | – | – | – | 3.59
